Experiment: refractive index (other wavelength) (dimensionless); xn = mol fraction of the nth substance listed
Details: 101 kPa, Liquid, Standard Abbe refractometry

CC(C)Cc1ccccc1 [(2-methylpropyl)benzene] + CCCCCCCCCCCC
refractive index
Details | x1 = 0.1014 | x1 = 0.2024 | x1 = 0.3032 | x1 = 0.4036 | x1 = 0.5038 | x1 = 0.6036 | x1 = 0.7032 | x1 = 0.8024 | x1 = 0.9014
293.15 K, Wavelength=436.1 nm | 1.43714 | 1.44344 | 1.45015 | 1.45682 | 1.46405 | 1.47144 | 1.47917 | 1.48711 | 1.49556
293.15 K, Wavelength=513.9 nm | 1.4307 | 1.4365 | 1.44273 | 1.44889 | 1.45559 | 1.46247 | 1.46959 | 1.47693 | 1.48487
293.15 K, Wavelength=589.3 nm | 1.42708 | 1.4326 | 1.43856 | 1.44443 | 1.45083 | 1.45746 | 1.46421 | 1.47122 | 1.47869
293.15 K, Wavelength=633.2 nm | 1.42554 | 1.43094 | 1.4368 | 1.44255 | 1.44884 | 1.45524 | 1.46196 | 1.46884 | 1.47617
293.15 K, Wavelength=657.2 nm | 1.42541 | 1.43084 | 1.43659 | 1.44269 | 1.44849 | 1.45427 | 1.46085 | 1.46776 | 1.47491
298.15 K, Wavelength=436.1 nm | 1.43491 | 1.44124 | 1.44775 | 1.45454 | 1.46153 | 1.46903 | 1.47676 | 1.48462 | 1.49284
298.15 K, Wavelength=513.9 nm | 1.42851 | 1.43425 | 1.44037 | 1.44665 | 1.45312 | 1.46005 | 1.46722 | 1.4745 | 1.48229
298.15 K, Wavelength=589.3 nm | 1.4249 | 1.43032 | 1.43623 | 1.44221 | 1.44841 | 1.45504 | 1.46188 | 1.46882 | 1.47611
298.15 K, Wavelength=633.2 nm | 1.42337 | 1.42885 | 1.43449 | 1.44035 | 1.44642 | 1.45293 | 1.45965 | 1.46646 | 1.47371
298.15 K, Wavelength=657.2 nm | 1.42267 | 1.42867 | 1.43417 | 1.44009 | 1.44578 | 1.45198 | 1.45863 | 1.46548 | 1.47249
303.15 K, Wavelength=436.1 nm | 1.43262 | 1.43872 | 1.44552 | 1.45204 | 1.45929 | 1.4666 | 1.47424 | 1.48209 | 1.49024
303.15 K, Wavelength=513.9 nm | 1.42624 | 1.43187 | 1.43818 | 1.44421 | 1.45077 | 1.45769 | 1.46477 | 1.47203 | 1.47981
303.15 K, Wavelength=589.3 nm | 1.42267 | 1.42804 | 1.43406 | 1.43981 | 1.44611 | 1.45269 | 1.45946 | 1.46639 | 1.47362
303.15 K, Wavelength=633.2 nm | 1.42115 | 1.42643 | 1.43232 | 1.43796 | 1.44427 | 1.45059 | 1.45721 | 1.46405 | 1.47135
303.15 K, Wavelength=657.2 nm | 1.42052 | 1.42618 | 1.4321 | 1.43801 | 1.44358 | 1.44965 | 1.45625 | 1.46299 | 1.47001
308.15 K, Wavelength=436.1 nm | 1.43035 | 1.43663 | 1.44293 | 1.44977 | 1.45671 | 1.46416 | 1.47181 | 1.47955 | 1.48775
308.15 K, Wavelength=513.9 nm | 1.42401 | 1.42966 | 1.43562 | 1.44199 | 1.44841 | 1.45531 | 1.46239 | 1.46958 | 1.47731
308.15 K, Wavelength=589.3 nm | 1.42043 | 1.42581 | 1.43152 | 1.43762 | 1.44375 | 1.45034 | 1.45708 | 1.46398 | 1.47126
308.15 K, Wavelength=633.2 nm | 1.41894 | 1.42433 | 1.42979 | 1.4358 | 1.44178 | 1.44827 | 1.45488 | 1.46165 | 1.46871
308.15 K, Wavelength=657.2 nm | 1.41824 | 1.42395 | 1.42984 | 1.43554 | 1.44115 | 1.44715 | 1.45387 | 1.46065 | 1.46758
313.15 K, Wavelength=436.1 nm | 1.42808 | 1.43404 | 1.44059 | 1.4473 | 1.45448 | 1.46172 | 1.46924 | 1.47706 | 1.48511
313.15 K, Wavelength=513.9 nm | 1.42179 | 1.42725 | 1.43332 | 1.43955 | 1.44611 | 1.45293 | 1.4599 | 1.46712 | 1.47502
313.15 K, Wavelength=589.3 nm | 1.41826 | 1.42345 | 1.42938 | 1.4352 | 1.44159 | 1.44797 | 1.45466 | 1.46154 | 1.46878
313.15 K, Wavelength=633.2 nm | 1.41677 | 1.42191 | 1.42752 | 1.43336 | 1.43965 | 1.4459 | 1.45247 | 1.45924 | 1.46652
313.15 K, Wavelength=657.2 nm | 1.41612 | 1.42149 | 1.42761 | 1.43304 | 1.43882 | 1.44496 | 1.45159 | 1.45817 | 1.46515
318.15 K, Wavelength=436.1 nm | 1.42579 | 1.43204 | 1.43791 | 1.44498 | 1.4518 | 1.45921 | 1.46673 | 1.47452 | 1.48247
318.15 K, Wavelength=513.9 nm | 1.41953 | 1.42512 | 1.43094 | 1.43729 | 1.44389 | 1.45049 | 1.45744 | 1.46465 | 1.47245
318.15 K, Wavelength=589.3 nm | 1.41596 | 1.42122 | 1.42669 | 1.43297 | 1.43898 | 1.44556 | 1.45224 | 1.4591 | 1.46615
318.15 K, Wavelength=633.2 nm | 1.41454 | 1.41993 | 1.425 | 1.43114 | 1.4371 | 1.44352 | 1.45008 | 1.45679 | 1.46372
318.15 K, Wavelength=657.2 nm | 1.41386 | 1.41979 | 1.42574 | 1.43091 | 1.43665 | 1.44244 | 1.44935 | 1.45594 | 1.46262
